# Results published in patent publication US8946224B2, “Substituted [1,2,4]triazolo[4,3-A]pyrazines for medicaments and pharmaceutical compositions” (Redx Pharma Limited, priority 2010, dated 2015).
# Read-outs that look alike come from different tables or passages of the source.
# How the values were obtained:
# [1] = test system: HepG2 cells; test: HepG2 cytotoxicity, MTT, 72 hours (Examples 93-95); format: cell-based; conditions: for MEC (minimum effective concentration that significantly crosses vehicle threshold) / AC50: Cell Loss; for AC50: Homo sapiens, HepG2, read-out: AC50 (concentration at which 50% maximum effect is observed)
# Method: Methodology for Examples 93-95
# A number of analogues were tested for their ability to kill cancer cells.
# HepG2 cells were plated on 96-well tissue culture treated polystyrene plates at 0.5×10^4 cells in 100 μL per well. After 24 hr the cells are dosed with test compound at a range of concentrations and incubated for 72 hours. One hour prior to the end of the incubation period, the cells are loaded with MU [yellow; 3-(4,5-dimethyl-2-thiazolyl)-2,5-diphenyl-2H-tetrazolium bromide], the plates are dried and re-solubilised using DMSO. The plates are then scanned using SpectraFluor Plus (TECAN).
# Cytotoxicity was assessed using MU. The assay provides a measurement of mitochondrial dehydrogenase activity and cell loss.
# A decrease can indicate a loss of cells indicating toxicity due to necrosis, apoptosis or a reduction in cellular proliferation.
# A decrease can also indicate an effect on mitochondrial function as mitochondrial dehydrogenasesreduce the MTT [yellow; 3-(4,5-dimethyl-2-thiazolyl)-2,5-diphenyl-2H-tetrazolium bromide] to formazan. The formazan is detected in this assay.
# The cells were dosed at concentrations of 0.04, 0.1, 0.4, 1, 4, 10, 40 and 100 μM. The assay was repeated three times at each concentration.
# AC50=The concentration at which 50% maximum effect is observed for each cell health parameter.
# The cells were dosed at concentrations of 0.02, 0.05, 0.2, 0.5, 2, 5, 20 and 50 μM. The assay was repeated three times at each concentration.
# The cells were dosed at concentrations of 0.04, 0.1, 0.4, 1, 4, 10, 40 and 100 μM for bexarotene and the compound of formula 102 when Z is CH═NOH (compound 13a). The cells were dosed at concentrations of 0.02, 0.05, 0.2, 0.5, 2, 5, 20 and 50 μM for the compound of formula 102 when Z is CH═NOMe (compound 13b). The assay was repeated three times at each concentration.
# [2] = test system: PathHunter NHRPro cell lines; test: PathHunter NHRPro cell assay, antagonist format (Examples 90-92); format: cell-based; conditions: for Emax: read-out: Max Response; for IC50: read-out: RC50 (IC50)
# Method: Methodology for Examples 90-92 Cell Handling
# PathHunter NHRPro cell lines were expanded from freezer stocks in T25 flasks according to standard procedures and maintained in selective growth media prior to assay.
# Once it was established that the cells were healthy and growing normally, cells were passaged from flasks using cell dissociation reagent and seeded into white walled clear bottom 384-well microplates for compound profiling.
# For profiling, cells were seeded at a density of 10000 cells per well in a total volume of 20 μL and were allowed to adhere and recover overnight prior to compound addition. Media contained charcoal-dextran filtered serum to reduce the level of hormones present.
# Agonist dose curves were performed the morning of profiling to determine the EC80 value for the following antagonist testing with compounds. 5 μL of 5× agonist was added to each well with an equal concentration of vehicle present.
# EC80 agonist concentration was determined directly from agonist dose curve.
# For antagonist determination, cells were pre-incubated with antagonist followed by agonist challenge at the EC80 concentration.
# 5 μL of 5× compound added to cells and incubated at 37° C. for 30 minutes.
# 5 μL of 6× EC80 agonist added to cells and incubated at 37° C. for 90 minutes (180 minutes for EDG2 and EDG8).
# After appropriate compound incubation, assay signal was generated through a single addition of 15 μL (50% v/v) of PathHunter Detection reagent cocktail for agonist and antagonist assays respectively followed by one hour incubation at room temperature.
# Microplates were read following signal generation with a PerkinElmer Envision™ instrument for chemiluminescent signal detection.
# Dose curves in the presence and absence of compound were plotted using GraphPad Prism or Activity Base.
# [3] = target: T1, recombinant human MAO-B (Homo sapiens, UniProt P27338); test: MAO-B inhibition, kynuramine substrate, LC-MS/MS of 4-hydroxyquinoline (Example 99); format: biochemical; conditions: for remaining activity at 0.001 µM: 0.001 μM test compound; for remaining activity at 0.001 µM / remaining activity at 0.01 µM / remaining activity at 0.04 µM / remaining activity at 0.1 µM / remaining activity at 0.4 µM / remaining activity at 1 µM / remaining activity at 10 µM: kynuramine 25 μM, read-out: Mean % Activity Remaining (n = 2); for remaining activity at 0.01 µM: 0.010 μM test compound; for remaining activity at 0.04 µM: 0.04 μM test compound; for remaining activity at 0.1 µM: 0.1 μM test compound; for remaining activity at 0.4 µM: 0.4 μM test compound; for remaining activity at 1 µM: 1 μM test compound; for remaining activity at 10 µM: 10 μM test compound; for IC50: MAO-B, substrate kynuramine 25 μM
# T1 sequence (P27338 1-520): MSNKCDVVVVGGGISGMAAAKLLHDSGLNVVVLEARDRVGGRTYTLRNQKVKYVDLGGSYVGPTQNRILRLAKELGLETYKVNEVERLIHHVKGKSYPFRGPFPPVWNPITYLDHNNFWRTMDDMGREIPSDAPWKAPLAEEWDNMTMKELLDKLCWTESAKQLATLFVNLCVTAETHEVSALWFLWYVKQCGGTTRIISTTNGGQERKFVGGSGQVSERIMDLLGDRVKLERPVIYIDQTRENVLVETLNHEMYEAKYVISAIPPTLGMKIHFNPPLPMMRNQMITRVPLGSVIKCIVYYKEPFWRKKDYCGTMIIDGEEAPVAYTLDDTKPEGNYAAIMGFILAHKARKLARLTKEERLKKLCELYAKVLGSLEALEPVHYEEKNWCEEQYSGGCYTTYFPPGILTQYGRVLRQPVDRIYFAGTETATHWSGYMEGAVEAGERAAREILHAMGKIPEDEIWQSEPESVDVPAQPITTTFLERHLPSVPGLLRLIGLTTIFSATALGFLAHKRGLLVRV
# Method: Eight test compound concentrations (0.001-10 μM; final DMSO concentration 0.5%) were incubated with recombinant human MAO-B (2 μg/mL) in the presence of the probe substrate kynuramine (25 μM) for 25 min at 37° C. Each test compound concentration was assessed in duplicate. […] The reactions were terminated by addition of methanol containing internal standard for analytical quantification. The quenched samples were incubated at 4° C. for 10 min and centrifuged at 4° C. for 10 min. The supernatant was removed and analysed by LC-MS/MS for the probe metabolite 4-hydroxyquinoline. Generic Cyprotex LC-MS/MS analytical conditions were used.
# A decrease in the formation of the metabolite compared to vehicle control was used to calculate an IC50 value.
# [4] = Example 95, dosed 0.04-100 μM (compound 13b 0.02-50 μM)
smiles,measurement,setting,value
"Cn1c(CCCC(=O)O)nc2cc(N(CCCl)CCCl)ccc21 [Bendamustine, bendamustine, reference compound]",MEC (minimum effective concentration that significantly crosses vehicle threshold),"[1]; Example 93, dosed 0.04-100 μM",40 µM
same,AC50,"[1]; Example 93, dosed 0.04-100 μM",92.3 µM
"C=C(c1ccc(C(=O)O)cc1)c1cc2c(cc1C)C(C)(C)CCC2(C)C [Bexarotene, bexarotene, reference compound]",MEC (minimum effective concentration that significantly crosses vehicle threshold),[1]; [4],40 µM
same,AC50,[1]; [4],44.3 µM
CCOc1nc2cccc(C(=O)O)c2n1Cc1ccc(-c2ccccc2-c2nnn[nH]2)cc1 [Candesartan],Emax,"[2]; AGTR1, Arrestin",101%
same,IC50,"[2]; AGTR1, Arrestin",0.00987 µM
"CCCCc1nc(Cl)c(C=NO)n1Cc1ccc(-c2ccccc2-c2nn[nH]n2)cc1 [Compound 4a, 1-((2′-(2H-Tetrazol-5-yl)-[1,1′-biphenyl]-4-yl)methyl)-2-butyl-4-chloro-1H-imidazole-5-carbaldehyde oxime]",Emax,"[2]; AGTR1, Arrestin",96.7%
same,IC50,"[2]; AGTR1, Arrestin",0.109 µM
"CCCCc1nc(Cl)c(C=NOC)n1Cc1ccc(-c2ccccc2-c2nn[nH]n2)cc1 [Compound 4b, 1-((2′-(2H-Tetrazol-5-yl)-[1′,1′-biphenyl]-4-yl)methyl)-2-butyl-4-chloro-1H-imidazole-5-carbaldehyde O-methyl oxime]",Emax,"[2]; AGTR1, Arrestin",97.4%
same,IC50,"[2]; AGTR1, Arrestin",0.248 µM
"Cn1c(CCCC=O)nc2cc(N(CCCl)CCCl)ccc21 [Compound 6a, 4-(5-(Bis(2-chloroethyl)amino)-1-methyl-1H-benzo[d]imidazol-2-yl)butanal]",MEC (minimum effective concentration that significantly crosses vehicle threshold),"[1]; Example 93, dosed 0.04-100 μM",4 µM
same,Activity in HepG2 cell assay (in words),"[1]; Example 93, 0.04-100 μM, 72 hours",exhibited a higher activity than compound 6b
same,AC50,"[1]; Example 93, dosed 0.04-100 μM",5.83 µM
"Cn1c(CCCC=NO)nc2cc(N(CCCl)CCCl)ccc21 [Compound 6b, 4-(5-(Bis(2-chloroethyl)amino)-1-methyl-1H-benzo[d]imidazol-2-yl)butanal oxime]",MEC (minimum effective concentration that significantly crosses vehicle threshold),"[1]; Example 93, dosed 0.04-100 μM",10 µM
same,AC50,"[1]; Example 93, dosed 0.04-100 μM",17.3 µM
"CCOc1nc2cccc(C=NO)c2n1Cc1ccc(-c2ccccc2-c2nnn[nH]2)cc1 [Compound 10a, 1-((2′-(1H-Tetrazol-5-yl)-[1,1′-biphenyl]-4-yl)methyl)-2-ethoxy-1H-benzo[d]imidazole-7-carbaldehyde oxime]",Emax,"[2]; AGTR1, Arrestin",101%
same,IC50,"[2]; AGTR1, Arrestin",0.0465 µM
"CCOc1nc2cccc(C=NOC)c2n1Cc1ccc(-c2ccccc2-c2nnn[nH]2)cc1 [Compound 10b, 1-((2′-(1H-tetrazol-5-yl)-[1,1′-biphenyl]-4-yl)methyl)-2-ethoxy-1H-benzo[d]imidazole-7-carbaldehyde O-methyl oxime]",Emax,"[2]; AGTR1, Arrestin",98.8%
same,IC50,"[2]; AGTR1, Arrestin",0.0488 µM
"C=C(c1ccc(C=NO)cc1)c1cc2c(cc1C)C(C)(C)CCC2(C)C [Compound 13a, 4-(1-(3,5,5,8,8-Pentamethyl-5,6,7,8-tetrahydronaphthalen-2-yl)vinyl)benzaldehyde oxime]",MEC (minimum effective concentration that significantly crosses vehicle threshold),[1]; [4],40 µM
same,AC50,[1]; [4],15.8 µM
"C=C(c1ccc(C=NOC)cc1)c1cc2c(cc1C)C(C)(C)CCC2(C)C [Compound 13b, 4-(1-(3,5,5,8,8-Pentamethyl-5,6,7,8-tetrahydronaphthalen-2-yl)vinyl)benzaldehyde O-methyl oxime]",MEC (minimum effective concentration that significantly crosses vehicle threshold),[1]; [4],50 µM
same,AC50,[1]; [4],45.6 µM
"Cc1ccc(F)cc1C(=O)Nc1ccc(CN2Cc3cccn3Cc3ccccc32)c(Cl)c1 [Compound 15a, N-(4-((5H-Benzo[e]pyrrolo[1,2-a][1,4]diazepin-10(11H)-yl)methyl)-3-chlorophenyl)-5-fluoro-2-methylbenzamide]",Emax,"[2]; AVPR2, Arrestin",108%
same,IC50,"[2]; AVPR2, Arrestin",0.0038 µM
"Cc1ccc(F)cc1CNc1ccc(C(=O)N2Cc3cccn3Cc3ccccc32)c(Cl)c1 [Compound 15b, (5H-Benzo[e]pyrrolo[1,2-a][1,4]diazepin-10(11H)-yl)(2-chloro-4-(5-fluoro-2-methylbenzylamino)phenyl)methanone]",Emax,"[2]; AVPR2, Arrestin",79.4%
same,IC50,"[2]; AVPR2, Arrestin",2.37 µM
"C[C@@H](C=NO)NCc1ccc(OCc2cccc(F)c2)cc1 [Compound 31a, (S)-2-(4-(3-Fluorobenzyloxy)benzylamino)propanal oxime]",remaining activity at 0.001 µM,[3],90%
same,remaining activity at 0.01 µM,[3],84%
same,remaining activity at 0.04 µM,[3],73%
same,remaining activity at 0.1 µM,[3],65%
same,remaining activity at 0.4 µM,[3],50%
same,remaining activity at 1 µM,[3],26%
same,remaining activity at 10 µM,[3],4%
same,IC50,[3],0.246 µM
"CON=C[C@H](C)NCc1ccc(OCc2cccc(F)c2)cc1 [Compound 31b, (S)-2-(4-(3-Fluorobenzyloxy)benzylamino)propanal O-methyl oxime]",remaining activity at 0.001 µM,[3],90%
same,remaining activity at 0.01 µM,[3],75%
same,remaining activity at 0.04 µM,[3],57%
same,remaining activity at 0.1 µM,[3],34%
same,remaining activity at 0.4 µM,[3],15%
same,remaining activity at 1 µM,[3],6%
same,remaining activity at 10 µM,[3],1%
same,IC50,[3],0.046 µM
"Cc1ccc(F)cc1C(=O)Nc1ccc(C(=O)N2Cc3cccn3Cc3ccccc32)c(Cl)c1 [Lixivaptan, lixivaptan, reference compound]",Emax,"[2]; AVPR2, Arrestin",102%
same,IC50,"[2]; AVPR2, Arrestin",0.00128 µM
CCCCc1nc(Cl)c(CO)n1Cc1ccc(-c2ccccc2-c2nn[nH]n2)cc1 [Losartan],Emax,"[2]; AGTR1, Arrestin",98.6%
same,IC50,"[2]; AGTR1, Arrestin",0.00821 µM
"C[C@H](NCc1ccc(OCc2cccc(F)c2)cc1)C(N)=O [Safinamide, safinamide, reference compound]",remaining activity at 0.001 µM,[3],101%
same,remaining activity at 0.01 µM,[3],95%
same,remaining activity at 0.04 µM,[3],79%
same,remaining activity at 0.1 µM,[3],62%
same,remaining activity at 0.4 µM,[3],31%
same,remaining activity at 1 µM,[3],13%
same,remaining activity at 10 µM,[3],2%
CCCCC(=O)N(Cc1ccc(-c2ccccc2-c2nnn[nH]2)cc1)[C@H](C(=O)O)C(C)C [Valsartan],Emax,"[2]; AGTR1, Arrestin",106%
same,IC50,"[2]; AGTR1, Arrestin",0.0017 µM
